Tests used:
Assay type in all cases: cell-based
[1] = target: T1, FKBP* (Homo sapiens, UniProt P62942, F37V); test: Immunoblot of FKBP* degradation in 293FT cells (CRBN-WT or CRBN-/-); conditions: 293FT CRBN-WT; pretreated two hours with 1 uM Carfilzomib, 0.5 uM MLN4924 or 10 uM Lenalidomide, then 4 hour dFKBP13
T1 construct: HA; expressed in transfected cells; host or cells: 293FT cells (CRBN-WT or CRBN-/-)
Procedure: FIG. 6 is an immunoblot of cells treated with bi-functional molecules described in the present invention. As described in Example 3, 293FT cells (CRBN-WT or CRBN−/−) expressing either HA-tagged FKBP12WT or FKBP* (also referred to as dFKBP12* herein) were treated with indicated concentrations of dFKBP7 for 4 hours.
FIG. 8 is an immunoblot of cells treated with heterobifunctional compounds described in the present invention. Isogenic 293FT cells (CRBN-WT or CRBN−/−) expressing either FKBP12WT or FKBP* were treated with 100 nM of either dFKBP7 or dFKBP13 for 4 hours (Example 5).
FIG. 9 is an immunoblot of cells treated with heterobifunctional compounds described in the present invention. Isogenic 293FT cells (CRBN-WT or CRBN−/−) expressing HA-tagged FKBP* were treated with the indicated dose of dFKBP13 for 4 hours (Example 6).
FIG. 11 is an immunoblot of cells treated with heterobifunctional compounds described in the present invention. 293FT cells (CRBN-WT) expressing FKBP* were pretreated with 1 uM Carfilzomib (proteasome inhibitor), 0.5 uM MLN4924 (neddylation inhibitor), and 10 uM Lenalidomide (CRBN binding ligand) for two hours prior to a 4 hour treatment with dFKBP13 (Example 8). Degradation of HA-tagged FKBP* by dFKBP13 was rescued by the proteasome inhibitor Carfilzomib, establishing a requirement for proteasome function.
The dTAG is predicated on the selectivity of FKBP* specific ligands over endogenous, wild type FKBP. In 293T cells expressing wild type FKBP12 or FKBP*, dFKBP7 induces targeted degradation only in FKBP* expressing cells. An immunoblot of cells treated with bi-functional molecules described in the present invention was performed. 293FT cells (CRBN-WT or CRBN−/−) expressing either HA-tagged FKBP12WT or FKBP* were treated with indicated concentrations of dFKBP7 for 4 hours.
In 293T cells expressing wild type FKBP12 or FKBP*, treatment with dFKBP7 and dFKBP13 induces targeted degradation only in FKBP* expressing cells. Isogenic 293FT cells (CRBN-WT or CRBN−/−) were engineered to express either FKBP12WT or FKBP*. Cells were treated with 100 nM of either dFKBP7 or dFKBP13 for 4 hours before lysates were prepared for western immunoblot analysis.
In an effort to define the optimal concentration of dFKB13 heterobifunctional compounds to induce degradation of FKBP*, degradation was measured upon treatment with increasing concentrations of dFKBP13. Isogenic 293FT cells (CRBN-WT or CRBN−/−) were engineered to expressed HA-tagged FKBP*. Cells were treated with the indicated dose of dFKBP13 for 4 hours before lysates were prepared for western immunoblot analysis.
293FT cells (CRBN-WT) were engineered to express FKBP*. Cells were pretreated with 1 uM Carfilzomib (proteasome inhibitor), 0.5 uM MLN4924 (neddylation inhibitor), and 10 uM Lenalidomide (CRBN binding ligand) for two hours prior to a 4-hour treatment with dFKBP13. Lysates were prepared and western immunoblot analysis performed. Degradation of HA-tagged FKBP* by dFKBP13 was rescued by the proteasome inhibitor Carfilzomib, establishing a requirement for proteasome function.

[2] = tested on: KRAS signaling (pMEK and pAKT); test: Immunoblot of downstream surrogates of KRAS signaling in NIH3T3 cells expressing FKBP*-KRASG12V; conditions: NIH3T3 cells expressing dTAG-KRASG12V; 1 μM, 24 hours
Procedure: (§1) FIG. 19 is an immunoblot of NIH3T3 cells expressing KRASG12V allele fused to FKBP* in the N-terminus or C-terminus. Cells were treated with 500 nM dFKBP7 for the indicated time. Cells were harvested and immunoblotted to measure degradation of FKBP*-KRASG12V and downstream surrogates of KRAS signaling (e.g. pMEK and pAKT).
FIG. 20 is an immunoblot of NIH3T3 cells expressing FKBP* fused to the N-terminus of KRASG12V treated with 1 uM of the indicated dFKBP heterobifunctional compounds for 24 hours. Cells were harvested and immunoblotted to measure degradation of FKBP*-KRASG12V and downstream surrogates of KRAS signaling (e.g. pMEK and pAKT).
FIG. 21 is an immunoblot of NIH3T3 cells expressing FKBP* fused to the N-terminus of KRASG12V treated with the indicated concentrations of dFKBP13 for 24 hours. Cells were harvested and immunoblotted to measure degradation of FKBP*-KRASG12V and downstream surrogates of KRAS signaling (e.g. pMEK and pAKT).
FIG. 22 is an immunoblot of NIH3T3 cells expressing FKBP* fused to the N-terminus of KRASG12V treated with 1 uM dFKBP13 for the indicated time. Cells were harvested and immunoblotted to measure degradation of FKBP*-KRASG12V and downstream surrogates of KRAS signaling (e.g. pMEK and pAKT).
Cells were treated with 500 nM dFKBP7 for the indicated time. […]

[3] = tested on: FKBP*-KRASG12V; test: Immunoblot of FKBP*-KRASG12V degradation in NIH3T3 cells; conditions: NIH3T3 cells expressing dTAG-KRASG12V; 1 μM, 24 hours
Procedure: as §1
(§2) Cells were harvested and immunoblotted to measure degradation of FKBP*-KRASG12V and downstream surrogates of KRAS signaling (e.g. pMEK and pAKT).
as §2, §2
Cells were treated with 500 nM dFKBP7 for the indicated time. Cells were harvested and immunoblotted to measure degradation of FKBP*-KRAS and downstream surrogates of KRAS signaling (e.g. pMEK and pAKT).
(§3) Cells were harvested and immunoblotted to measure degradation of FKBP*-KRAS and downstream surrogates of KRAS signaling (e.g. pMEK and pAKT).
as §3
To evaluate the kinetic control of targeted degradation of dTAG-KRAS, dFKBP13 was administered by increased duration. […]

T1 sequence (P62942 whole entry F37V): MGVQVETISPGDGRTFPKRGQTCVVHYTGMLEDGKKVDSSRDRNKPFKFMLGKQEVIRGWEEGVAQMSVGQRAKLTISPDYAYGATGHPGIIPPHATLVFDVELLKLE

Row | SMILES | Effect of pretreatment on dFKBP13-induced degradation of HA-tagged FKBP* [1] | Inhibition of downstream signaling (pMEK, pAKT) [2] | Degradation of FKBP*-KRAS [3]
1 | CC(C)C[C@H](NC(=O)[C@H](CCc1ccccc1)NC(=O)CN1CCOCC1)C(=O)N[C@@H](Cc1ccccc1)C(=O)N[C@@H](CC(C)C)C(=O)[C@@]1(C)CO1 [Carfilzomib] | rescued | – | –
2 | Nc1cccc2c1CN(C1CCC(=O)NC1=O)C2=O (centres unmarked) [Lenalidomide] | abolished dFKBP13-dependent FKBP* degradation | – | –
3 | CC[C@H](C(=O)N1CCCC[C@H]1C(=O)O[C@H](CCc1ccc(OC)c(OC)c1)c1cccc(OCC(=O)NCCCCCCCCNC(=O)COc2cccc3c2C(=O)N(C2CCC(=O)NC2=O)C3=O)c1)c1cc(OC)c(OC)c(OC)c1 (some centres unmarked) [dFKBP9] | – | inhibition of downstream signaling | potent degradation of FKBP*-KRAS
4 | NS(=O)(=O)OC[C@@H]1C[C@@H](n2ccc3c(N[C@H]4CCc5ccccc54)ncnc32)C[C@@H]1O [MLN4924] | rescued HA-tagged FKBP* | – | –

Reference: US11311609B2, “Regulating chimeric antigen receptors” (DANA-FARBER CANCER INSTITUTE, INC., priority 2017, dated 2022)
